Read-outs that look alike come from different tables or passages of the source. Where a SMILES comes first, the peptide text is derived from it. Bridges are numbered along the chain shown (N, C = ends). Roman numbers before positions name the chains, in order. [ ]: non-standard residue; d: D form. Ala(cPent) = N[C@@H](CC1CCCC1)C(=O)O; Cha = N[C@@H](CC1CCCCC1)C(=O)O; aThr = C[C@H](O)[C@H](N)C(=O)O; Tle = CC(C)(C)[C@H](N)C(=O)O; dDab = NCC[C@@H](N)C(=O)O; Orn = NCCC[C@H](N)C(=O)O; Dab = NCC[C@H](N)C(=O)O; Dap = NC[C@H](N)C(=O)O
Key:
Format in all cases: cell-based
[1] = tested on: human red blood cells (hRBC); experiment: Hemolysis of human red blood cells; conditions: 100 μg/mL
How it was run: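 hRBC washed 3× PBS; 20% v/v, ~0.9×10^9 cells/mL final. Peptide 100 μg/mL, 1 h, 37° C., 300 rpm. Spin, supernatant diluted 8×, OD540. 0% = PBS + 0.001% acetic acid; 100% = 2.5% Triton X-100. % hemolysis = OD540 peptide/OD540 full lysis × 100.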

[2] = tested on: Klebsiella pneumoniae SSI #3010
How it was run: (§1)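 Peptide stocks (1 mg/mL, water) were diluted two-fold into MH-II broth with 0.002% P-80 and mixed with approx. 10^6 CFU/mL bacteria. Plates were read visually after 18-20 hours at 35° C, with MIC expressed in μg/mL per CLSI.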

[3] = tested on: Acinetobacter baumannii 872842
[4] = tested on: Pseudomonas aeruginosa ATCC 27853
How it was run: as §1

[5] = tested on: Klebsiella pneumoniae 968733
[6] = tested on: Acinetobacter baumannii DSM 30008
How it was run: as §1

[7] = tested on: Escherichia coli ATCC 25922
How it was run: as §1

[8] = tested on: Escherichia coli 926415
[9] = clinical isolate, Mueller-Hinton II broth, P-80 0.002% present

Row | Structure (SMILES) | Hemolysis at 100 μg/mL ([1]; red cells of human, 1 h) | Klebsiella pneumoniae SSI #3010 MIC ([2]; SSI #3010) | Acinetobacter baumannii 872842 MIC [3]; 872842 | Pseudomonas aeruginosa ATCC 27853 MIC ([4]; ATCC 27853) | Klebsiella pneumoniae 968733 MIC [5]; 968733 | Acinetobacter baumannii DSM 30008 MIC ([6]; DSM 30008) | Escherichia coli ATCC 25922 MIC ([7]; ATCC 25922) | Escherichia coli 926415 MIC [8]; 926415 | Hemolysis at 100 μg/mL ([1]; 20% hRBC, 1 h at 37° C.) | Klebsiella pneumoniae SSI #3010 MIC ([2]; Mueller-Hinton II broth) | Acinetobacter baumannii 872842 MIC [3, 9] | Pseudomonas aeruginosa ATCC 27853 MIC ([4]; Mueller-Hinton II broth) | Klebsiella pneumoniae 968733 MIC [5, 9] | Acinetobacter baumannii DSM 30008 MIC ([6]; Mueller-Hinton II broth) | Escherichia coli ATCC 25922 MIC ([7]; Mueller-Hinton II broth) | Escherichia coli 926415 MIC [8, 9]
1 | CC(C)C[C@@H]1NC(=O)[C@H](CO)NC(=O)[C@H](CC(C)C)NC(=O)[C@@H]2CCCN2C(=O)[C@H]2CCCN2C(=O)[C@H]([C@@H](C)O)NC(=O)[C@H](C)NC(=O)[C@H](C(C)C)NC(=O)[C@@H](NC(=O)[C@@H](N)CC(C)C)CSSC[C@@H](C(=O)NCC(=O)N[C@@H](CCN)C(=O)N[C@H](C(=O)N[C@@H](CCN)C(=O)N[C@H]2CCNC(=O)[C@H]([C@@H](C)O)NC(=O)[C@H](CCN)NC(=O)[C@H](CCN)NC(=O)[C@H](CC(C)C)NC(=O)[C@@H](CC(C)C)NC(=O)[C@H](CCN)NC2=O)[C@@H](C)O)NC1=O [Ex. 154] (H-LCVAT[dP]PLSLCG[Dab]T[Dab][Dab][Dab][dL]L[Dab][Dab]T; disulfide 2-11; lactam 16-C) | <1% | 0.0625 µg/mL | 0.03125 µg/mL | 1 µg/mL | 0.25 µg/mL | 0.0625 µg/mL | 0.0625 µg/mL | 0.125 µg/mL |  |  |  |  |  |  |  | 
2 | CC(C)C[C@@H]1NC(=O)[C@@H](Cc2ccccc2)NC(=O)[C@H](CCN)NC(=O)[C@@H](NC(=O)[C@H](CCN)NC(=O)[C@@H](NC(=O)[C@H](CCN)NC(=O)CNC(=O)[C@@H]2CSSC[C@H](NC(=O)[C@@H](N)Cc3c[nH]c4ccccc34)C(=O)N[C@@H](C(C)C)C(=O)N[C@@H](C)C(=O)N[C@@H](CO)C(=O)N3CCC[C@@H]3C(=O)N3CCC[C@H]3C(=O)N[C@@H](CC3CCCC3)C(=O)N[C@@H](CO)C(=O)N[C@@H](Cc3ccc(O)cc3)C(=O)N2)[C@@H](C)O)CCNC(=O)[C@H]([C@@H](C)O)NC(=O)[C@H](CCN)NC(=O)[C@H](CCN)NC1=O [Ex. 132] (H-WCVAS[dP]P[Ala(cPent)]SYCG[Dab]T[Dab][Dab][Dab][dF]L[Dab][Dab]T; disulfide 2-11; lactam 16-C) | <1% | 0.125 µg/mL | 0.0625 µg/mL | 0.25 µg/mL | 0.125 µg/mL | 0.0625 µg/mL | 0.0625 µg/mL | 0.1255 µg/mL |  |  |  |  |  |  |  | 
3 | CC(C)C[C@@H]1NC(=O)[C@H](CO)NC(=O)[C@H](Cc2ccc(O)cc2)NC(=O)[C@@H]2CCCN2C(=O)[C@H]2CCCN2C(=O)[C@H](Cc2c[nH]cn2)NC(=O)[C@H](C)NC(=O)[C@H](C(C)C)NC(=O)[C@@H](NC(=O)[C@@H](N)CC(C)C)CSSC[C@@H](C(=O)NCC(=O)N[C@@H](CCN)C(=O)N[C@H](C(=O)N[C@@H](CCN)C(=O)N[C@H]2CCNC(=O)[C@H]([C@@H](C)O)NC(=O)[C@H](CCN)NC(=O)[C@H](CCN)NC(=O)[C@H](CC(C)C)NC(=O)[C@@H](CC(C)C)NC(=O)[C@H](CCN)NC2=O)[C@@H](C)O)NC1=O [Ex. 156] (H-LCVAH[dP]PYSLCG[Dab]T[Dab][Dab][Dab][dL]L[Dab][Dab]T; disulfide 2-11; lactam 16-C) | <1% | 0.125 µg/mL | 0.0625 µg/mL | 0.25 µg/mL | 0.5 µg/mL | 0.125 µg/mL | 0.125 µg/mL | 1 µg/mL |  |  |  |  |  |  |  | 
4 | CC(=O)N[C@@H](Cc1c[nH]c2ccccc12)C(=O)N[C@H]1CSSC[C@@H](C(=O)N[C@@H](CCCN)C(=O)N[C@H](C(=O)N[C@@H](CCN)C(=O)N[C@H]2CCNC(=O)[C@H]([C@@H](C)O)NC(=O)[C@H](CCN)NC(=O)[C@H](CCN)NC(=O)[C@H](CC(C)C)NC(=O)[C@@H](Cc3ccccc3)NC(=O)[C@H](CCN)NC2=O)[C@@H](C)O)NC(=O)[C@H](CC2CCCCC2)NC(=O)[C@H](Cc2c[nH]cn2)NC(=O)[C@H](CC(C)C)NC(=O)[C@@H]2CCCN2C(=O)[C@H]2CCCN2C(=O)[C@H]([C@H](C)O)NC(=O)[C@H](C)NC(=O)[C@H](C(C)(C)C)NC1=O [Ex. 113] (Ac-WC[Tle]A[aThr][dP]PLH[Cha]C[Orn]T[Dab][Dab][Dab][dF]L[Dab][Dab]T; disulfide 2-11; lactam 15-C) | 5% | 2 µg/mL | 0.25 µg/mL | 1 µg/mL | 4 µg/mL | 1 µg/mL | 1 µg/mL | 0.5 µg/mL |  |  |  |  |  |  |  | 
5 | CC(C)C[C@@H]1NC(=O)[C@@H](CC(C)C)NC(=O)[C@H](CCN)NC(=O)[C@@H](NC(=O)[C@H](CCN)NC(=O)[C@@H](CCN)NC(=O)[C@@H](NC(=O)[C@H](CCCN)NC(=O)[C@@H]2CSSC[C@H](NC(=O)[C@@H](N)Cc3c[nH]c4ccccc34)C(=O)N[C@@H](C(C)C)C(=O)N[C@@H](CO)C(=O)N[C@@H](CO)C(=O)N3CCC[C@@H]3C(=O)N[C@@H](Cc3ccc(O)cc3)C(=O)N[C@@H](C(C)C)C(=O)N[C@@H](CN)C(=O)N[C@@H](Cc3ccc(O)cc3)C(=O)N2)[C@@H](C)O)CCNC(=O)[C@H]([C@@H](C)O)NC(=O)[C@H](CCN)NC(=O)[C@H](CCN)NC1=O [Ex. 149] (H-WCVSS[dP]YV[Dap]YC[Orn]T[dDab][Dab][Dab][Dab][dL]L[Dab][Dab]T; disulfide 2-11; lactam 16-C) | <1% | 0.25 µg/mL | 0.0625 µg/mL | 0.5 µg/mL | 0.5 µg/mL | 0.5 µg/mL | 0.5 µg/mL | 0.125 µg/mL |  |  |  |  |  |  |  | 
6 | CC(=O)N[C@@H](Cc1c[nH]c2ccccc12)C(=O)N[C@H]1CSSC[C@@H](C(=O)N[C@@H](CCCN)C(=O)N[C@H](C(=O)N[C@@H](CCN)C(=O)N[C@@H](CCN)C(=O)N[C@H]2CCNC(=O)[C@H]([C@@H](C)O)NC(=O)[C@H](CCN)NC(=O)[C@H](CCN)NC(=O)[C@H](CC(C)C)NC(=O)[C@@H](Cc3ccccc3)NC(=O)[C@H](CCN)NC2=O)[C@@H](C)O)NC(=O)[C@H](Cc2ccc(O)cc2)NC(=O)[C@H](CC(=O)O)NC(=O)[C@H](CC(C)C)NC(=O)[C@@H]2CCCN2C(=O)[C@H]2CCCN2C(=O)[C@H](CO)NC(=O)[C@H](Cc2ccc(O)cc2)NC(=O)[C@H](C(C)(C)C)NC1=O [Ex. 146] (Ac-WC[Tle]YS[dP]PLDYC[Orn]T[Dab][Dab][Dab][Dab][dF]L[Dab][Dab]T; disulfide 2-11; lactam 16-C) | 3% | 0.25 µg/mL | 1 µg/mL | 0.5 µg/mL | 4 µg/mL | 0.125 µg/mL | 0.25 µg/mL | 4 µg/mL |  |  |  |  |  |  |  | 
7 | CC(C)C[C@@H]1NC(=O)[C@@H](CC(C)C)NC(=O)[C@H](CCN)NC(=O)[C@@H](NC(=O)[C@H](CCN)NC(=O)[C@@H](NC(=O)[C@H](CCN)NC(=O)CC[C@@H]2NC(=O)[C@@H]3CSSC[C@H](NC(=O)[C@H](Cc4c[nH]c5ccccc45)NC(=O)[C@H](CCN)NC(=O)[C@@H](CCN)NC2=O)C(=O)N[C@@H](C(C)(C)C)C(=O)N[C@@H]([C@@H](C)O)C(=O)N[C@@H](CO)C(=O)N2CCC[C@@H]2C(=O)N2CCC[C@H]2C(=O)N[C@@H](CC(C)C)C(=O)N[C@@H](CO)C(=O)N[C@@H](Cc2ccc(O)cc2)C(=O)N3)[C@@H](C)O)CCNC(=O)[C@H]([C@@H](C)O)NC(=O)[C@H](CCN)NC(=O)[C@H](CCN)NC1=O [Ex. 98] (I: cyclo(LSYCE[dDab][Dab]WC[Tle]TS[dP]P) / II: [Dab]T[Dab][Dab][Dab][dL]L[Dab][Dab]T; disulfide I:4-I:9; amide I:5-II:N; lactam II:4-II:C) |  |  |  |  |  |  |  |  | 2% | 0.125 µg/mL | 0.25 µg/mL | 0.25 µg/mL | 0.5 µg/mL | 0.0625 µg/mL | 0.125 µg/mL | 0.5 µg/mL
8 | CC(C)C[C@@H]1NC(=O)[C@H](C)NC(=O)[C@H]2CCCN2C(=O)[C@H](CO)NC(=O)[C@H](C)NC(=O)[C@H](C(C)C)NC(=O)[C@@H](NC(=O)[C@@H](N)Cc2c[nH]c3ccccc23)CSSC[C@@H](C(=O)N[C@@H](CCN)C(=O)N[C@@H](CCN)C(=O)N[C@H](C(=O)N[C@@H](CCN)C(=O)N[C@H]2CCNC(=O)[C@H]([C@@H](C)O)NC(=O)[C@H](CCN)NC(=O)[C@H](CCN)NC(=O)[C@H](CC(C)C)NC(=O)[C@@H](CC(C)C)NC(=O)[C@H](CCN)NC2=O)[C@@H](C)O)NC(=O)[C@H](Cc2ccc(O)cc2)NC(=O)[C@H](CO)NC1=O [Ex. 125] (H-WCVAS[dP]ALSYC[Dab][Dab]T[Dab][Dab][Dab][dL]L[Dab][Dab]T; disulfide 2-11; lactam 16-C) | 1% | 0.125 µg/mL | 0.0625 µg/mL | 0.5 µg/mL | 1 µg/mL | 0.125 µg/mL | 0.0625 µg/mL | 0.25 µg/mL |  |  |  |  |  |  |  | 

Reference: patent US10829520B2, “Beta-hairpin peptidomimetics” (POLYPHOR AG, priority 2015, dated 2020)
